The test system of this experiment is Phytophthora infestans, strain resistant to phenylalanine. The settings on record: listed phosphite salt(s) alone at 750 ppm equivalent phosphorous acid, potato plants, scale 100 to 0.

This is an account of results in patent US20090081174A1 (priority 2005, published 2009).

Molecules are shown by their SMILES.

As for `O=[PH]([O-])[O-].[Cu+2]` [CuHPO3, copper (II) salt of phosphorous acid], the “Activity (y)” value was 12.
